Source: the supplement of paper PMC8960247
± gives the standard error.

Tests used:
[1] = test system: 621-102 (TSC2-deficient); assay: relative viability vs DMSO; higher = less cytotoxic; settings: serum: 10% FBS, 72 h
[2] = test system: 621-103 (TSC2-rescued); assay: as above; settings: serum: 10% FBS, 72 h
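Also: immortalized renal angiomyolipoma cells stably carrying empty vector or TSC2, dosed in 384-well plates in DMEM, viability normalized to vehicle-treated wells within each plate.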

## NC(=O)c1cccc2[nH]c(-c3ccc(C4CCCN4)cc3F)nc12 (configuration not stated)
[1]; 0.0001 µM
  relative viability: 98.7 ± 1.1%
[1]; 0.001 µM
  relative viability: 103.2 ± 0.25%
[1]; 0.01 µM
  relative viability: 104 ± 4.6%
[1]; 0.1 µM
  relative viability: 99.4 ± 3.5%
[1]; 1 µM
  relative viability: 102 ± 4.6%
[1]; 10 µM
  relative viability: 93.99 ± 0.45%
[2]; 0.0001 µM
  relative viability: 96.5 ± 3.4%
[2]; 0.001 µM
  relative viability: 98.4 ± 1.8%
[2]; 0.01 µM
  relative viability: 102 ± 2.6%
[2]; 0.1 µM
  relative viability: 98.4 ± 4.6%
[2]; 1 µM
  relative viability: 103 ± 2.3%
[2]; 10 µM
  relative viability: 94 ± 1.4%

## NC1(Cc2ccc(Cl)cc2)CCN(c2ncnc3[nH]ccc23)CC1
[1]; 0.0001 µM
  relative viability: 65.2 ± 2.3%
[1]; 0.001 µM
  relative viability: 81 ± 1.2%
[1]; 0.01 µM
  relative viability: 81.4 ± 1.9%
[1]; 0.1 µM
  relative viability: 92.8 ± 5.6%
[1]; 1 µM
  relative viability: 77.3 ± 3.3%
[1]; 10 µM
  relative viability: 60.6 ± 1%
[2]; 0.0001 µM
  relative viability: 114 ± 2.5%
[2]; 0.001 µM
  relative viability: 102 ± 1.4%
[2]; 0.01 µM
  relative viability: 111 ± 2.4%
[2]; 0.1 µM
  relative viability: 102 ± 5.5%
[2]; 1 µM
  relative viability: 96.3 ± 4.4%
[2]; 10 µM
  relative viability: 72 ± 0.83%

## Nc1nccc(Oc2ccc(NC(=O)c3c[nH]cc(-c4ccc(F)cc4)c3=O)cc2F)c1Cl
[1]; 0.0001 µM
  relative viability: 94 ± 10%
[1]; 0.001 µM
  relative viability: 118 ± 2.6%
[1]; 0.01 µM
  relative viability: 111 ± 3.1%
[1]; 0.1 µM
  relative viability: 103 ± 2.8%
[1]; 1 µM
  relative viability: 102 ± 2.2%
[1]; 10 µM
  relative viability: 94.5 ± 1.3%
[2]; 0.0001 µM
  relative viability: 90.9 ± 6.6%
[2]; 0.001 µM
  relative viability: 94.6 ± 4.2%
[2]; 0.01 µM
  relative viability: 102 ± 1.6%
[2]; 0.1 µM
  relative viability: 104 ± 2%
[2]; 1 µM
  relative viability: 98.9 ± 1.2%
[2]; 10 µM
  relative viability: 98.15 ± 0.84%

## O=C(NC[C@H](O)CO)c1ccncc1Nc1ccc(I)cc1F
[1]; 0.0001 µM
  relative viability: 100.3 ± 0.48%
[1]; 0.001 µM
  relative viability: 92 ± 13%
[1]; 0.01 µM
  relative viability: 101 ± 3.2%
[1]; 0.1 µM
  relative viability: 97.01 ± 0.18%
[1]; 1 µM
  relative viability: 90.5 ± 2%
[1]; 10 µM
  relative viability: 55.7 ± 0.91%
[2]; 0.0001 µM
  relative viability: 101.8 ± 0.97%
[2]; 0.001 µM
  relative viability: 104 ± 1.9%
[2]; 0.01 µM
  relative viability: 105 ± 1.4%
[2]; 0.1 µM
  relative viability: 103.5 ± 0.29%
[2]; 1 µM
  relative viability: 99.919 ± 0.052%
[2]; 10 µM
  relative viability: 78.4 ± 1.2%

## O=C(NOCC1CC1)c1ccc(F)c(F)c1Nc1ccc(I)cc1Cl
[1]; 0.0001 µM
  relative viability: 101 ± 2.5%
[1]; 0.001 µM
  relative viability: 98 ± 1.2%
[1]; 0.01 µM
  relative viability: 104 ± 1.8%
[1]; 0.1 µM
  relative viability: 97.3 ± 1.5%
[1]; 1 µM
  relative viability: 98.4 ± 1.5%
[1]; 10 µM
  relative viability: 81.4 ± 0.87%
[2]; 0.0001 µM
  relative viability: 97.56 ± 0.82%
[2]; 0.001 µM
  relative viability: 92.3 ± 5.6%
[2]; 0.01 µM
  relative viability: 98.9 ± 2.7%
[2]; 0.1 µM
  relative viability: 99.9 ± 2.7%
[2]; 1 µM
  relative viability: 96.7 ± 3.3%
[2]; 10 µM
  relative viability: 74.9 ± 1.4%

## O=C1NC(=O)/C(=C/c2ccc(-c3ccc(F)cc3O)o2)S1
[1]; 0.0001 µM
  relative viability: 111 ± 2.5%
[1]; 0.001 µM
  relative viability: 109 ± 2.8%
[1]; 0.01 µM
  relative viability: 102 ± 1.2%
[1]; 0.1 µM
  relative viability: 96.7 ± 3.6%
[1]; 1 µM
  relative viability: 106 ± 2.1%
[1]; 10 µM
  relative viability: 90.8 ± 2.4%
[2]; 0.0001 µM
  relative viability: 92.9 ± 9.3%
[2]; 0.001 µM
  relative viability: 95.3 ± 2.2%
[2]; 0.01 µM
  relative viability: 96.95 ± 0.74%
[2]; 0.1 µM
  relative viability: 101 ± 5.6%
[2]; 1 µM
  relative viability: 88.2 ± 2%
[2]; 10 µM
  relative viability: 108 ± 3.4%

## O=C1NC(=O)/C(=C/c2ccc3c(c2)OC(F)(F)O3)S1
[1]; 0.0001 µM
  relative viability: 104 ± 2.5%
[1]; 0.001 µM
  relative viability: 97.7 ± 4.8%
[1]; 0.01 µM
  relative viability: 102 ± 1.9%
[1]; 0.1 µM
  relative viability: 104.3 ± 0.58%
[1]; 1 µM
  relative viability: 100.2 ± 0.23%
[1]; 10 µM
  relative viability: 102.4 ± 0.35%
[2]; 0.0001 µM
  relative viability: 98.2 ± 7.7%
[2]; 0.001 µM
  relative viability: 91.4 ± 7.6%
[2]; 0.01 µM
  relative viability: 90.7 ± 1.1%
[2]; 0.1 µM
  relative viability: 95.5 ± 2.7%
[2]; 1 µM
  relative viability: 98.1 ± 6.7%
[2]; 10 µM
  relative viability: 88.49 ± 0.37%

## O=C1NC(=O)/C(=C\c2ccc3nccnc3c2)S1
[1]; 0.0001 µM
  relative viability: 106 ± 1.9%
[1]; 0.001 µM
  relative viability: 114 ± 1.2%
[1]; 0.01 µM
  relative viability: 120.5 ± 1.1%
[1]; 0.1 µM
  relative viability: 108 ± 7.8%
[1]; 1 µM
  relative viability: 105.2 ± 0.38%
[1]; 10 µM
  relative viability: 110 ± 3.2%
[2]; 0.0001 µM
  relative viability: 100.2 ± 0.99%
[2]; 0.001 µM
  relative viability: 96.5 ± 2.7%
[2]; 0.01 µM
  relative viability: 98.02 ± 0.75%
[2]; 0.1 µM
  relative viability: 100 ± 1.5%
[2]; 1 µM
  relative viability: 99.5 ± 1.9%
[2]; 10 µM
  relative viability: 98.8 ± 1.3%

## OC(CN1CCN(c2cccc(Cl)c2)CC1)C(c1ccccc1)c1ccccc1 (configuration not stated)
[1]; 0.0001 µM
  relative viability: 102 ± 4.7%
[1]; 0.001 µM
  relative viability: 93.4 ± 2.8%
[1]; 0.01 µM
  relative viability: 104 ± 2.5%
[1]; 0.1 µM
  relative viability: 95.9 ± 2.9%
[1]; 1 µM
  relative viability: 102 ± 2.5%
[1]; 10 µM
  relative viability: 89.25 ± 0.44%
[2]; 0.0001 µM
  relative viability: 83.9 ± 10%
[2]; 0.001 µM
  relative viability: 85.7 ± 8.3%
[2]; 0.01 µM
  relative viability: 95.1 ± 7.2%
[2]; 0.1 µM
  relative viability: 98.58 ± 0.47%
[2]; 1 µM
  relative viability: 83.3 ± 4.9%
[2]; 10 µM
  relative viability: 79.1 ± 4.4%

## Oc1c2ccccc2c2c3c(cccc13)N=N2
[1]; 0.0001 µM
  relative viability: 104.7 ± 0.13%
[1]; 0.001 µM
  relative viability: 103 ± 4.5%
[1]; 0.01 µM
  relative viability: 105 ± 1.1%
[1]; 0.1 µM
  relative viability: 103 ± 1.3%
[1]; 1 µM
  relative viability: 102 ± 4%
[1]; 10 µM
  relative viability: 83.3 ± 2.2%
[2]; 0.0001 µM
  relative viability: 100.6 ± 0.42%
[2]; 0.001 µM
  relative viability: 101 ± 1.9%
[2]; 0.01 µM
  relative viability: 101.1 ± 0.35%
[2]; 0.1 µM
  relative viability: 100.1 ± 0.67%
[2]; 1 µM
  relative viability: 98.2 ± 1.6%
[2]; 10 µM
  relative viability: 95.2 ± 2.7%

## Oc1ccc(-c2nc(-c3ccc(F)cc3)c(-c3ccncc3)[nH]2)cc1
[1]; 0.0001 µM
  relative viability: 104 ± 3.7%
[1]; 0.001 µM
  relative viability: 106.7 ± 0.78%
[1]; 0.01 µM
  relative viability: 104 ± 3.6%
[1]; 0.1 µM
  relative viability: 104.8 ± 0.31%
[1]; 1 µM
  relative viability: 103.8 ± 0.12%
[1]; 10 µM
  relative viability: 105 ± 2.4%
[2]; 0.0001 µM
  relative viability: 99.5 ± 0.91%
[2]; 0.001 µM
  relative viability: 99.83 ± 0.79%
[2]; 0.01 µM
  relative viability: 99.49 ± 0.82%
[2]; 0.1 µM
  relative viability: 97.7 ± 1.4%
[2]; 1 µM
  relative viability: 98.4 ± 1.1%
[2]; 10 µM
  relative viability: 98.8 ± 1.3%
